# Test results: patent US4017540A, “Method of use, composition, and compounds” (The Upjohn Company, priority 1972, dated 1977)
# Values joined by “and” are separate entries in the source; they are usually repeats but may differ in a detail not shown here. Identical values can stand only once. “Also recorded” adds a separate entry of the source.
# How the values were obtained:
# anorexigenic activity = conditions: in vivo
# Bunostomum = assay: Example 31 lamb test, Bunostomum; format: in vivo; conditions: 200 mg./kg.
# Method: (§1) At both dosages, the compound p-toluoyl chloride phenylhydrazone was efficacious against Haemonchus, Ostertagia, Nematodirus, Trichostrongylus, Strongyloides, Oesophagostomum, and Cooperia.
# (§2) In th comprehesive test with 100 mg./kg. and 200 mg./kg. dosages of p-toluoyl chloride phenylhydrazone, five lambs were used for each dosage level, and five lambs were maintained as unmedicated controls. Daily egg counts in the feces were made before and after treatment. The lambs were killed and examined post-mortem for worms present 11 days after treatment. Helminth populations were recovered, enumerated and identified.
# (§3) The mean percentage efficacy against specific helminths in the test lambs was calculated by subtracting the average number of the helminths observed in the treated lambs, postmortem, from the average number observed in the unmedicated controls, post-mortem; dividing the remainder by the latter average number; and multiplying by 100. Accordingly, the means percentage efficacies against the various helminths identified in the test lambs were calculated and found to be as follows: […]
# helminths [1] = assay: Example 31 lamb test, helminths overall; format: in vivo; conditions: 100 mg. and 200 mg. per kg
# Method: as §1, §2, §3
# Strongyloides [2] = assay: preliminary test with worm infested lambs, Strongyloides; format: in vivo; conditions: one lamb
# Method: (§4) A preliminary test with lambs was effected by maintaining worm infested lambs under satisfactory environmental conditions with feed and water available ad libitum. Pretreatment fecal examinations were made in order to characterize and evaluate the parasitism of each animal. The presence of helminth ova was recorded in terms of the number of eggs per gram of feces.
# (§5) On the day of treatment, each lamb was weighed and a dosage for it was calculated in terms of milligrams of compound per kilogram of body weight. The calculated dosage of compound was pulverized and packed in a gelatin capsule for oral administration.
# Strongyloides [3] = assay: Example 31 lamb test, Strongyloides; format: in vivo; conditions: for average number of Strongyloides remaining: group average; for total number of Strongyloides remaining: group total; for mean percentage efficacy against Strongyloides: vs unmedicated controls
# Method: as §1, §2, §3
# Nematodirus [4] = assay: Example 31 lamb test, Nematodirus; format: in vivo; conditions: for average number of Nematodirus remaining: group average; for total number of Nematodirus remaining: group total; for mean percentage efficacy against Nematodirus: vs unmedicated controls
# Method: as §1, §2, §3
# tapeworm Moniezia = assay: Example 31 lamb test, tapeworm; format: in vivo
# Method: as §1, §2, §3
# Trichuris ovis = assay: preliminary test with worm infested lambs, Trichuris; format: in vivo; conditions: one lamb, 400 mg./kg. oral
# Method: as §4, §5
# Trichostrongylus [5] = assay: Example 31 lamb test, Trichostrongylus; format: in vivo; conditions: for average number of Trichostrongylus remaining: group average; for total number of Trichostrongylus remaining: group total; for mean percentage efficacy against Trichostrongylus: vs unmedicated controls
# Method: as §1, §2, §3
# Ostertagia [6] = assay: preliminary test with worm infested lambs, Ostertagia; format: in vivo; conditions: one lamb
# Method: as §4, §5
# Haemonchus [7] = assay: preliminary test with worm infested lambs, Haemonchus; format: in vivo; conditions: one lamb, 300 mg./kg. oral
# Method: as §4, §5
# Trichuris = assay: Example 31 lamb test, Trichuris; format: in vivo; conditions: for average number of Trichuris remaining: group average; for total number of Trichuris remaining: group total
# Method: as §2, §3
# Nematodirus [8] = assay: preliminary test with worm infested lambs, Nematodirus; format: in vivo; conditions: one lamb
# Method: as §4, §5
# Cooperia = assay: Example 31 lamb test, Cooperia; format: in vivo; conditions: for average number of Cooperia remaining: group average; for total number of Cooperia remaining: group total; for mean percentage efficacy against Cooperia: vs unmedicated controls
# Method: as §1, §2, §3
# lambs = conditions: in vivo
# Method: as §2, with “At both dosages, the compound p-toluoyl chloride phenylhydrazone was efficacious against Haemonchus, Ostertagia, Nematodirus, Trichostrongylus, Strongyloides, Oesophagostomum, and Cooperia. […] In” for “In”
# Oesophagostomum [9] = assay: Example 31 lamb test, Oesophagostomum; format: in vivo; conditions: for average number of Oesophagostomum remaining: group average; for total number of Oesophagostomum remaining: group total; for mean percentage efficacy against Oesophagostomum: vs unmedicated controls
# Method: as §1, §2, §3
# Trichostrongylus [10] = assay: preliminary test with worm infested lambs, Trichostrongylus; format: in vivo; conditions: one lamb
# Method: as §4, §5
# helminths [11] = assay: preliminary test with worm infested lambs, helminths overall; format: in vivo; conditions: one lamb
# Method: as §4, §5
# In this preliminary test one lamb received 200 mg. p-toluoyl chloride phenylhydrazone per kilogram of body weight - a total dosage of 5.0 g.
# Oesophagostomum [12] = assay: preliminary test with worm infested lambs, Oesophagostomum; format: in vivo; conditions: one lamb, 300 mg./kg. oral
# Method: as §4, §5
# parasitic worms = assay: anthelmintic activity (general; sheep); conditions: in vivo
# Haemonchus [13] = assay: Example 31 lamb test, Haemonchus; format: in vivo; conditions: for average number of Haemonchus remaining: group average; for total number of Haemonchus remaining: group total; for mean percentage efficacy against Haemonchus: vs unmedicated controls
# Method: as §1, §2, §3
# Ostertagia [14] = assay: Example 31 lamb test, Ostertagia; format: in vivo; conditions: for average number of Ostertagia remaining: group average; for total number of Ostertagia remaining: group total; for mean percentage efficacy against Ostertagia: vs unmedicated controls
# Method: as §1, §2, §3
# insects and mites = assay: insecticidal and miticidal activity (general); conditions: in vivo
smiles,measurement,setting,value
"ClC(=NNc1c(Cl)cc(Cl)cc1Cl)c1ccc(Cl)cc1 [p-chlorobenzoyl chloride (2,4,6-trichlorophenyl)hydrazone]",anorexigenic activity,anorexigenic activity,anorexigenic activity
Cc1ccc(C(Cl)=NNc2ccccc2)cc1 [p-toluoyl chloride phenylhydrazone],"number of Bunostomum recovered at necropsy, individual lamb",Bunostomum,2 and 1
same,average number of Bunostomum remaining,Bunostomum; group average,1.5
same,total number of Bunostomum remaining,Bunostomum; group total,3
same,mean percentage efficacy against Bunostomum,Bunostomum; vs unmedicated controls,97%
same,overall anthelmintic activity in lambs,helminths [1],excellent activity
same,activity against Strongyloides (egg counts and necropsy),Strongyloides [2]; 300 mg./kg. oral,established activity
same,activity against Strongyloides,Strongyloides [2]; 400 mg./kg. oral,Activity
same,efficacy against Strongyloides (in words),Strongyloides [3]; 100 mg. and 200 mg. per kg,efficacious
same,"number of Strongyloides recovered at necropsy, individual lamb",Strongyloides [3]; 100 mg./kg.,2 and 0 and 11
same,average number of Strongyloides remaining,Strongyloides [3]; 100 mg./kg.,3
same,total number of Strongyloides remaining,Strongyloides [3]; 100 mg./kg.,13
same,mean percentage efficacy against Strongyloides,Strongyloides [3]; 100 mg./kg.,97.9%
same,"number of Strongyloides recovered at necropsy, individual lamb",Strongyloides [3]; 200 mg./kg.,0
same,average number of Strongyloides remaining,Strongyloides [3]; 200 mg./kg.,0
same,total number of Strongyloides remaining,Strongyloides [3]; 200 mg./kg.,0
same,mean percentage efficacy against Strongyloides,Strongyloides [3]; 200 mg./kg.,100%
same,efficacy against Nematodirus (in words),Nematodirus [4]; 100 mg. and 200 mg. per kg,efficacious
same,"number of Nematodirus recovered at necropsy, individual lamb",Nematodirus [4]; 100 mg./kg.,0
same,average number of Nematodirus remaining,Nematodirus [4]; 100 mg./kg.,0
same,total number of Nematodirus remaining,Nematodirus [4]; 100 mg./kg.,0
same,mean percentage efficacy against Nematodirus,Nematodirus [4]; 100 mg./kg.,100%
same,"number of Nematodirus recovered at necropsy, individual lamb",Nematodirus [4]; 200 mg./kg.,0
same,average number of Nematodirus remaining,Nematodirus [4]; 200 mg./kg.,0
same,total number of Nematodirus remaining,Nematodirus [4]; 200 mg./kg.,0
same,mean percentage efficacy against Nematodirus,"Nematodirus [4]; 200 mg./kg., *= only one lamb infected",100%
same,activity against the tapeworm Moniezia,tapeworm Moniezia; 100 mg. and 200 mg. per kg,activity against the tapeworm Moniezia was observed
same,activity against tapeworm,tapeworm Moniezia; 200 mg./kg.,positive
same,"number of tapeworm recovered at necropsy, individual lamb",tapeworm Moniezia; 200 mg./kg.,0
same,average number of tapeworm remaining,"tapeworm Moniezia; 200 mg./kg., group average",0
same,total number of tapeworm remaining,"tapeworm Moniezia; 200 mg./kg., group total",0
same,activity against Trichuris ovis,Trichuris ovis,lack of noticeable activity
same,efficacy against Trichostrongylus (in words),Trichostrongylus [5]; 100 mg. and 200 mg. per kg,efficacious
same,"number of Trichostrongylus recovered at necropsy, individual lamb",Trichostrongylus [5]; 100 mg./kg.,0 and 15
same,average number of Trichostrongylus remaining,Trichostrongylus [5]; 100 mg./kg.,4
same,total number of Trichostrongylus remaining,Trichostrongylus [5]; 100 mg./kg.,15
same,mean percentage efficacy against Trichostrongylus,Trichostrongylus [5]; 100 mg./kg.,98.7%
same,"number of Trichostrongylus recovered at necropsy, individual lamb",Trichostrongylus [5]; 200 mg./kg.,0
same,average number of Trichostrongylus remaining,Trichostrongylus [5]; 200 mg./kg.,0
same,total number of Trichostrongylus remaining,Trichostrongylus [5]; 200 mg./kg.,0
same,mean percentage efficacy against Trichostrongylus,Trichostrongylus [5]; 200 mg./kg.,100%
same,activity against Ostertagia (egg counts and necropsy),Ostertagia [6]; 300 mg./kg. oral,established activity
same,activity against Ostertagia,Ostertagia [6]; 400 mg./kg. oral,Activity
same,activity against Haemonchus (egg counts and necropsy),Haemonchus [7],established activity
same,"number of Trichuris recovered at necropsy, individual lamb",Trichuris; 100 mg./kg.,31 and 83 and 3 and 37 and 4
same,average number of Trichuris remaining,Trichuris; 100 mg./kg.,32
same,total number of Trichuris remaining,Trichuris; 100 mg./kg.,158
same,mean percentage efficacy against Trichuris,"Trichuris; 100 mg./kg., vs unmedicated controls",0%
same,"number of Trichuris recovered at necropsy, individual lamb",Trichuris; 200 mg./kg.,6 and 64 and 28 and 56
same,average number of Trichuris remaining,Trichuris; 200 mg./kg.,39
same,total number of Trichuris remaining,Trichuris; 200 mg./kg.,154
same,activity against Nematodirus (egg counts and necropsy),Nematodirus [8]; 300 mg./kg. oral,established activity
same,activity against Nematodirus,Nematodirus [8]; 400 mg./kg. oral,Activity
same,efficacy against Cooperia (in words),Cooperia; 100 mg. and 200 mg. per kg,efficacious
same,"number of Cooperia recovered at necropsy, individual lamb",Cooperia; 100 mg./kg.,0
same,average number of Cooperia remaining,Cooperia; 100 mg./kg.,0
same,total number of Cooperia remaining,Cooperia; 100 mg./kg.,0
same,mean percentage efficacy against Cooperia,"Cooperia; 100 mg./kg., *= only one lamb infected",100%
same,"number of Cooperia recovered at necropsy, individual lamb",Cooperia; 200 mg./kg.,0
same,average number of Cooperia remaining,Cooperia; 200 mg./kg.,0
same,total number of Cooperia remaining,Cooperia; 200 mg./kg.,0
same,mean percentage efficacy against Cooperia,Cooperia; 200 mg./kg.,100%
same,signs of toxicity to the lambs,lambs,absence of signs of toxicity
same,efficacy against Oesophagostomum (in words),Oesophagostomum [9]; 100 mg. and 200 mg. per kg,efficacious
same,"number of Oesophagostomum recovered at necropsy, individual lamb",Oesophagostomum [9]; 100 mg./kg.,0
same,average number of Oesophagostomum remaining,Oesophagostomum [9]; 100 mg./kg.,0
same,total number of Oesophagostomum remaining,Oesophagostomum [9]; 100 mg./kg.,0
same,mean percentage efficacy against Oesophagostomum,Oesophagostomum [9]; 100 mg./kg.,100%
same,"number of Oesophagostomum recovered at necropsy, individual lamb",Oesophagostomum [9]; 200 mg./kg.,0 and 3
same,average number of Oesophagostomum remaining,Oesophagostomum [9]; 200 mg./kg.,< 1
same,total number of Oesophagostomum remaining,Oesophagostomum [9]; 200 mg./kg.,3
same,mean percentage efficacy against Oesophagostomum,Oesophagostomum [9]; 200 mg./kg.,90.6%
same,activity against Trichostrongylus (egg counts and necropsy),Trichostrongylus [10]; 300 mg./kg. oral,established activity
same,activity against Trichostrongylus,Trichostrongylus [10]; 400 mg./kg. oral,Activity
same,effectiveness of the dosage,helminths [11]; 200 mg./kg. oral,somewhat effective
same,helminth eggs in the feces,helminths [11]; 200 mg./kg. oral,significantly fewer helminth eggs in the feces
same,numbers of helminths at necropsy,helminths [11]; 200 mg./kg. oral,reduced numbers of helminths at necropsy
same,helminth egg counts,helminths [11]; 300 mg./kg. oral,reduced significantly (except Trichuris)
same,worm infestation on necropsy,helminths [11]; 300 mg./kg. oral,low
same,egg counts,helminths [11]; 400 mg./kg. oral,significantly lowered egg counts
same,worms at necropsy,helminths [11]; 400 mg./kg. oral,absence of worms
same,activity against Oesophagostomum (egg counts and necropsy),Oesophagostomum [12],established activity
same,anthelmintic activity,parasitic worms,effective against worms; also recorded: efficacious anthelmintic agents
same,efficacy against Haemonchus (in words),Haemonchus [13]; 100 mg. and 200 mg. per kg,efficacious
same,"number of Haemonchus recovered at necropsy, individual lamb",Haemonchus [13]; 100 mg./kg.,2 and 0
same,average number of Haemonchus remaining,Haemonchus [13]; 100 mg./kg.,< 1
same,total number of Haemonchus remaining,Haemonchus [13]; 100 mg./kg.,2
same,mean percentage efficacy against Haemonchus,Haemonchus [13]; 100 mg./kg.,99.9%
same,"number of Haemonchus recovered at necropsy, individual lamb",Haemonchus [13]; 200 mg./kg.,0 and 1
same,average number of Haemonchus remaining,Haemonchus [13]; 200 mg./kg.,< 1
same,total number of Haemonchus remaining,Haemonchus [13]; 200 mg./kg.,1
same,mean percentage efficacy against Haemonchus,Haemonchus [13]; 200 mg./kg.,99.9%
same,efficacy against Ostertagia (in words),Ostertagia [14]; 100 mg. and 200 mg. per kg,efficacious
same,"number of Ostertagia recovered at necropsy, individual lamb",Ostertagia [14]; 100 mg./kg.,0
same,average number of Ostertagia remaining,Ostertagia [14]; 100 mg./kg.,0
same,total number of Ostertagia remaining,Ostertagia [14]; 100 mg./kg.,0
same,mean percentage efficacy against Ostertagia,Ostertagia [14]; 100 mg./kg.,100%
same,"number of Ostertagia recovered at necropsy, individual lamb",Ostertagia [14]; 200 mg./kg.,0
same,average number of Ostertagia remaining,Ostertagia [14]; 200 mg./kg.,0
same,total number of Ostertagia remaining,Ostertagia [14]; 200 mg./kg.,0
same,mean percentage efficacy against Ostertagia,Ostertagia [14]; 200 mg./kg.,100%
Fc1c(F)c(F)c(C(Cl)=NNc2ccccc2)c(F)c1F [pentafluorobenzoyl chloride phenylhydrazone],insecticidal and miticidal activity,insects and mites,outstanding insecticidal and miticidal agent
